Results reported in ChEMBL document CHEMBL5104193, “Hypoxia-Activated Prodrugs with Dual COX-2/CA Inhibitory Effects on Attenuating Cardiac Inflammation under Hypoxia” (J Med Chem, 2022).
Calls of active or inactive are those of the source. The rule behind the calls is not given here.

Tests used:
[1] = test system: H9c2; assay: Protection against LPS/hypoxia induced cell injury in rat H9c2 cells assessed as recovery of cell viability at 10 uM by CCK-8 assay; format: functional, cell-based
[2] = test system: H9c2; assay: Protection against LPS/ hypoxia induced cell injury in rat H9c2 cells assessed as recovery of cell viability at 1 to 10 uM by CCK-8 assay; format: functional, cell-based; settings: dose 1-10 µM
[3] = test system: H9c2; assay: Anti-inflammatory activity in rat H9c2 cells assessed as downregulation of cytochrome C expression at 10 uM by Western blot analysis; format: functional, cell-based
[4] = test system: H9c2; assay: Protection against LPS/hypoxia induced cell injury in CA9 knockdown rat H9c2 cells assessed as recovery of cell viability at 10 uM by CCK-8 assay; format: functional, cell-based
[5] = test system: H9c2; assay: Protection against LPS/hypoxia induced apoptosis in rat H9c2 cells assessed as reduction in red fluorescence in presence of 2-(4-(5-oxo-5-((5-sulfamoyl-1,3,4-thiadiazol-2-yl)amino)pentyl)-1H-1,2,3-triazol-1-yl)acetic acid by confocal microscopy analysis; format: functional, cell-based
[6] = test system: H9c2; assay: Anti-inflammatory activity in LPS/hypoxia induced rat H9c2 cells assessed as reduction of IL-6 protein expression at 10 uM in presence of 2-(4-(5-oxo-5-((5-sulfamoyl-1,3,4-thiadiazol-2-yl)amino)pentyl)-1H-1,2,3-triazol-1-yl)acetic acid by Western blot analysis; format: functional, cell-based
[7] = test system: H9c2; assay: Anti-inflammatory activity in LPS/hypoxia induced rat H9c2 cells assessed as increase in VEGF expression at 10 uM in presence of 2-(4-(5-oxo-5-((5-sulfamoyl-1,3,4-thiadiazol-2-yl)amino)pentyl)-1H-1,2,3-triazol-1-yl)acetic acid by Western blot analysis; format: functional, cell-based
[8] = Stability of the compound assessed as NTR (unknown origin) mediated hydrolysis by measuring half life by UV spectrophotometry; format: ADME; settings: human
[9] = test system: H9c2; assay: Protection against LPS/hypoxia induced apoptosis in rat H9c2 cells assessed as reduction in necrotic cells at 10 umol/L incubated for 4 hrs under hypoxia condition in presence of 2-(4-(5-oxo-5-((5-sulfamoyl-1,3,4-thiadiazol-2-yl)amino)pentyl)-1H-1,2,3-triazol-1-yl)acetic acid by AnnexinV-FITC/propidium iodide staining based flow cytometry analysis (reference value: 31.02%); format: functional; parameters: scale not given: the % may be the effect or the level left; settings: dose 10 µmol/L, at 10 µM
[10] = test system: Rattus norvegicus; assay: (§1) Antiinflammatory activity against LPS/talc powder induced pericarditic Wistar rat assessed as elimination of pericardial effusion at 20 mg/kg, ip pretreated for 2 hrs followed by LPS/tal powder stimulation measured after 48 hrs in presence of 2-(4-(5-oxo-5-((5-sulfamoyl-1,3,4-thiadiazol-2-yl)amino)pentyl)-1H-1,2,3-triazol-1-yl)acetic acid; format: functional, organism-based; settings: time 50.0 hrs
[11] = test system: H9c2; assay: Protection against LPS/hypoxia induced cell injury in rat H9c2 cells assessed as recovery of cell viability in presence of 2-(4-(5-oxo-5-((5-sulfamoyl-1,3,4-thiadiazol-2-yl)amino)pentyl)-1H-1,2,3-triazol-1-yl)acetic acid and Na2WO4 by CCK-8 assay; format: functional, cell-based
[12] = test system: H9c2; assay: Reversal of ATP level in LPS/hypoxia induced rat H9c2 cell in presence of 2-(4-(5-oxo-5-((5-sulfamoyl-1,3,4-thiadiazol-2-yl)amino)pentyl)-1H-1,2,3-triazol-1-yl)acetic acid and Na2WO4 by multimode plate reader analysis; format: functional, cell-based
[13] = Toxicity in Wistar rat assessed as change in ALT level in presence of 2-(4-(5-oxo-5-((5-sulfamoyl-1,3,4-thiadiazol-2-yl)amino)pentyl)-1H-1,2,3-triazol-1-yl)acetic acid; settings: in vivo
[14] = test system: H9c2; assay: Reversal of ATP level in LPS/hypoxia induced rat H9c2 cells in presence of 2-(4-(5-oxo-5-((5-sulfamoyl-1,3,4-thiadiazol-2-yl)amino)pentyl)-1H-1,2,3-triazol-1-yl)acetic acid by multimode plate reader analysis (reference value: 21.37 nmol/mg); format: functional
[15] = test system: Rattus norvegicus; assay: as §1, with “in” for “against”, “rat model” for “rat”, “increase in CK-MB level in serum” for “elimination of pericardial effusion”, “acid (reference value: 4140+/-256.23 U/L)” for “acid”; format: functional; settings: time 50 hrs
[16] = test system: Rattus norvegicus; assay: as §1, with “reduction in heart swelling” for “elimination of pericardial effusion”; format: functional, organism-based; settings: time 50.0 hrs
[17] = Toxicity in Wistar rat assessed as change in CRE level in presence of 2-(4-(5-oxo-5-((5-sulfamoyl-1,3,4-thiadiazol-2-yl)amino)pentyl)-1H-1,2,3-triazol-1-yl)acetic acid; settings: in vivo
[18] = test system: H9c2; assay: Antiinflammatory activity in LPS/hypoxia induced CA9 knockdown rat H9c2 cells assessed as decrease in IL-1 beta protein level at 10 uM by Western blot analysis; format: functional, cell-based
[19] = test system: H9c2; assay: Inhibition of intracellular ROS level in LPS/hypoxia induced rat H9c2 cells in presence of 2-(4-(5-oxo-5-((5-sulfamoyl-1,3,4-thiadiazol-2-yl)amino)pentyl)-1H-1,2,3-triazol-1-yl)acetic acid by DCFH-DA probe based fluorescence confocal microscopy analysis; format: functional, cell-based
[20] = test system: H9c2; assay: Protection against LPS/hypoxia induced apoptosis in rat H9c2 cells assessed as reduction in necrotic cells at 10 umol/L incubated for 4 hrs under hypoxia condition by AnnexinV-FITC/propidium iodide staining based flow cytometry analysis (reference value: 31.02%); format: functional; parameters: scale not given: the % may be the effect or the level left; settings: dose 10 µmol/L, at 10 µM
[21] = test system: H9c2; assay: Antiinflammatory activity in LPS/hypoxia induced CA9 knockdown rat H9c2 cells assessed as decrease in TNF-alpha protein level at 10 uM by Western blot analysis; format: functional, cell-based
[22] = test system: H9c2; assay: Anti-inflammatory activity in LPS/hypoxia induced rat H9c2 cells assessed as reduction of IL-1 beta protein expression at 10 uM by Western blot analysis; format: functional, cell-based
[23] = test system: H9c2; assay: Anti-inflammatory activity in rat H9c2 cells assessed as inhibition of endogenous IL-6 protein expression in presence of 2-(4-(5-oxo-5-((5-sulfamoyl-1,3,4-thiadiazol-2-yl)amino)pentyl)-1H-1,2,3-triazol-1-yl)acetic acid by DAPI staining based immunofluorescence analysis; format: functional, cell-based
[24] = test system: Rattus norvegicus; assay: as §1, with “reduction in torsion T wave inversion” for “elimination of pericardial effusion”, “acid by ECG analysis” for “acid”; format: functional, organism-based; settings: T-cell, time 50.0 hrs
[25] = test system: H9c2; assay: Inhibition of intracellular ROS level in LPS/hypoxia induced rat H9c2 cells in presence of 2-(4-(5-oxo-5-((5-sulfamoyl-1,3,4-thiadiazol-2-yl)amino)pentyl)-1H-1,2,3-triazol-1-yl)acetic acid and Na2WO4 by DCFH-DA probe based fluorescence confocal microscopy analysis; format: functional, cell-based
[26] = test system: H9c2; assay: Protection against LPS/hypoxia induced apoptosis in rat H9c2 cells assessed as reduction in red fluorescence by confocal microscopy analysis; format: functional, cell-based
[27] = test system: H9c2; assay: Anti-inflammatory activity in rat H9c2 cells assessed as downregulation of cytochrome C expression at 10 uM in presence of 2-(4-(5-oxo-5-((5-sulfamoyl-1,3,4-thiadiazol-2-yl)amino)pentyl)-1H-1,2,3-triazol-1-yl)acetic acid by Western blot analysis; format: functional, cell-based
[28] = test system: H9c2; assay: Anti-inflammatory activity in LPS/hypoxia induced rat H9c2 cells assessed as reduction of TNF-alpha protein expression at 10 uM by Western blot analysis; format: functional, cell-based
[29] = test system: Rattus norvegicus; assay: as §1, with “reduction in U wave flattening” for “elimination of pericardial effusion”, “acid by ECG analysis” for “acid”; format: functional, organism-based; settings: time 50.0 hrs

For `COc1ccc2c(c1)c(CC(=O)O)c(C)n2C(=O)c1ccc(Cl)cc1` [INDOMETHACIN], which Activity [1] is on record?
The Activity was “Active”.

What about the Activity [2] of the same compound?
Its Activity is “Active”.

What about the Activity [3] of the same compound?
Its Activity is “Active”.

And the Activity [4]?
The Activity was “Active”.

And the Activity [5]?
The Activity was “Active”.

And the Activity [6]?
The Activity was “Active”.

And the Activity [7]?
Its Activity is “Active”.

And the t1/2 [8]?
Its t1/2 is 21.6 min.

And the Activity [9]?
Its Activity is 9.61%.

And the Activity [10]?
The Activity was “Active”.

And the Activity [11]?
Its Activity is “Active”.

And the Activity [12]?
Its Activity is “Active”.

What about the Activity [13] of the same compound?
Its Activity is “Toxic”.

And the Activity [14]?
Its Activity is 47.52 nmol/mg.

What about the Activity [15] of the same compound?
The Activity was 2620 U/L.

And the Activity [16]?
The Activity was “Active”.

What about the Activity [17] of the same compound?
The Activity was “Toxic”.

And the Activity [18]?
The Activity was “Active”.

And the inhibition [19]?
Its inhibition is “Active”.

And the Activity [20]?
The Activity was 23.96%.

And the Activity [21]?
The Activity was “Active”.

What about the Activity [22] of the same compound?
The Activity was “Active”.

What about the Activity [23] of the same compound?
The Activity was “Active”.

And the Activity [24]?
Its Activity is “Active”.

And the inhibition [25]?
The inhibition was “Active”.

And the Activity [26]?
Its Activity is “Active”.

What about the Activity [27] of the same compound?
The Activity was “Active”.

What about the Activity [28] of the same compound?
The Activity was “Active”.

What about the Activity [29] of the same compound?
The Activity was “Active”.
